Assay results: PubChem BioAssay (NCI)
Several values for one entry are separate records, joined by “and”; a condition that tells them apart may be missing. Equal entries are not always repeated.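 Cells were grown in 96-well plates and exposed to each compound for 48 hours at five concentrations; endpoints were interpolated linearly between bracketing concentrations, or set to the highest concentration if not reached. At the GI50, growth is halved. The concentration for full growth arrest is given as TGI.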 Where a SMILES comes first, the peptide text is derived from it. [ ]: non-standard residue; d: D form. The star is where a group is joined. NMeF = CN[CH](Cc1ccccc1)C(=O)O; NMeV = CN[CH](C(=O)O)C(C)C; Boc = CC(C)(C)OC(=O)*

Legend:
Experiment in all cases: inhibition of tumour cell growth, NCI panel, 48 h
MOLT-4 leukemia = tested on: MOLT-4 leukemia
HL-60(TB) leukemia = tested on: HL-60(TB) leukemia
COLO 205 colon = tested on: COLO 205 colon
UACC-257 melanoma = tested on: UACC-257 melanoma
K-562 leukemia = tested on: K-562 leukemia
KM12 colon = tested on: KM12 colon
U251 CNS = tested on: U251 CNS
HCT-116 colon = tested on: HCT-116 colon
TK-10 renal = tested on: TK-10 renal
UO-31 renal = tested on: UO-31 renal

SMILES | TGI (MOLT-4 leukemia) [µM] | TGI (HL-60(TB) leukemia) [µM] | TGI (COLO 205 colon) | TGI (UACC-257 melanoma) | TGI (K-562 leukemia) [µM] | TGI (KM12 colon) | TGI (U251 CNS) | TGI (HCT-116 colon) | TGI (TK-10 renal) | TGI (UO-31 renal) | GI50 (MOLT-4 leukemia) [µM] | GI50 (HL-60(TB) leukemia) [µM] | GI50 (COLO 205 colon) [µM] | GI50 (UACC-257 melanoma) [µM] | GI50 (K-562 leukemia) [µM] | GI50 (KM12 colon) [µM] | GI50 (U251 CNS) [µM] | GI50 (HCT-116 colon) [µM] | GI50 (TK-10 renal) | GI50 (UO-31 renal)
c1ccc2c(c1)ccn2CCc1c[nH]c2ccccc12 | > 10 | > 10 | > 10 µM | > 10 µM | > 10 | > 10 µM | > 10 µM | > 10 µM | > 10 µM | > 10 µM | – | – | – | – | – | – | – | – | – | –
Cc1cc(S(=O)(=O)Nc2nnc(-c3ccccc3)c(-c3ccccc3)n2)c(SCC(N)=O)cc1Cl | 49.2 | > 100 | > 100 µM | 97.6 µM | > 100 | > 100 µM | 78.4 µM | 37.8 µM | > 100 µM | > 100 µM | 24.4 | 53.3 | > 100 | 33.1 | 36.3 | 37 | 31.1 | 20.7 | > 100 µM | > 100 µM
C1=CC2SSSC2C1 (centres undefined) | > 100 | > 100 | > 100 µM | > 100 µM | > 100 | > 100 µM | > 100 µM | > 100 µM | > 100 µM | > 100 µM | – | – | – | – | – | – | – | – | – | –
O=C1OC(c2ccccc2)=N/C1=C\c1cccc2ccccc12 | > 100 | > 100 | > 100 µM | > 100 µM | > 100 | > 100 µM | > 100 µM | > 100 µM | > 100 µM | > 100 µM | – | – | – | – | – | – | – | – | – | –
Cc1cccc(NC(=O)C(=O)C(C(=O)c2ccc3ccccc3c2)C2OC(=O)c3ccccc32)c1C (centres undefined) | 32.2 | 68.5 | 24.7 µM | 35.1 µM | > 100 | 51.7 µM | 23.1 µM | 22.2 µM | 50.9 µM | 35.7 µM | – | – | – | – | – | – | – | – | – | –
COC1=CC(=O)c2nc(-c3cccc(C)n3)[nH]c2C1=O | > 100 | > 100 | 67.7 µM | > 100 µM | > 100 | > 100 µM | 41.7 µM | 35.7 µM | 40.2 µM | > 100 µM | 64.7 | 76.4 | 26.5 | 65.3 | > 100 | 35.4 | 20.4 | 18 | 19.4 µM | 26.4 µM
CC(C)C(NC(=O)OC(C)(C)C)C(=O)N(C)C(Cc1ccccc1)C(=O)N(C)C(C(=O)O)C(C)C (stereo not drawn) (Boc-Val-[NMeF]-[NMeV]-OH; configuration not given here) | > 100 | > 100 | > 100 µM | > 100 µM | > 100 | > 100 µM | > 100 µM | > 100 µM | > 100 µM | > 100 µM | – | – | – | – | – | – | – | – | – | –
COc1ccc(Nc2c3ccccc3nc3occc23)cc1 | > 33 | – | – | 28.9 µM | – | 5.43 µM | > 100 µM | > 32.3 µM | 20.6 µM | > 100 µM | 1.55 | 1.47 | 2 | 9.98 | 0.292 | 0.274 | 3.85 | 1.54 | 1.61 µM | 22.5 µM
Cc1cn(C2CC(N(O)Cc3ccccc3)C(CO[Si](C)(C)C(C)(C)C)O2)c(=O)[nH]c1=O (centres undefined) | > 100 | > 100 | 35.8 µM and 32.6 µM | 67.5 µM and 30 µM | > 100 | 51.7 µM and 31 µM | 38.6 µM and 28.4 µM | 34.8 µM and 29.7 µM | > 100 µM and 31.8 µM | > 100 µM and 24.9 µM | – | – | – | – | – | – | – | – | 37.8 µM and 18 µM | 32.6 µM and 12.3 µM
N#CC(NNC(=O)Cc1ccccc1)c1c(O)ccc2ccccc12 (centres undefined) | > 48.3 | > 46 | > 80.5 µM | 18.3 µM | > 100 | > 72.4 µM | 45 µM | 50.9 µM | 80.4 µM | 11.2 µM | – | – | – | – | – | – | – | – | – | –
CCOc1ccccc1NC(=O)CC(C(=O)OC)C(=O)C(=O)OC (centres undefined) | > 100 | > 100 | > 100 µM | > 100 µM | > 100 | > 100 µM | > 100 µM | > 100 µM | > 100 µM | > 100 µM | – | – | – | – | – | – | – | – | – | –
CC(=O)CSCc1ccccn1 | 61.4 | 64.5 | > 100 µM | > 100 µM | 82.3 | > 100 µM | > 100 µM | > 100 µM | > 100 µM | > 100 µM | – | – | – | – | – | – | – | – | – | –
